{"source": "patent US20230263792A1", "about": "“USE OF 2,3,5-SUBSTITUTED THIOPHENE COMPOUND FOR PREVENTING, ALLEVIATION, OR TREATING MASTOCYTOSIS” (PHAROS IBIO CO., LTD, priority 2020, published 2023)", "key": {"[1]": {"tested_on": "Ba/F3 cell line with a c-kit D816V mutation", "test": "Growth inhibition of c-kit D816V Ba/F3 cell line (Celltiter glo)", "type": "cell-based", "conditions": "GI50 comparison, Table 1", "description": "Specifically, 100 μl of a Ba/F3 cell line with a c-kit D816V mutation (FIG. 1) was added to each well of a 96-well plate at a concentration of 10,000 cells/100 μl. After 4 hours, 100 μl of the Ba/F3 cell line was treated with 0.5 μl of each of control compounds and PHI-101 (10-point 1:3 serial dilutions) to a final concentration of up to 50 μM, and cultured at 37° C. under 5% CO2 for 72 hours. As the control compounds, imatinib and sunitinib which are c-kit inhibitors were used. After culture, the cells were counted using a Celltiter glo assay kit (Promega), and the 50% growth inhibition values (GI50, μM) of the control compounds and PHI-101 were measured."}, "[2]": {"tested_on": "c-kit D816V mutant Ba/F3 cell line", "test": "Annexin V-PI FACS apoptosis analysis, c-kit D816V Ba/F3", "type": "cell-based", "conditions": "0.1, 1 and 10 μM, 24 hours, FIG. 3", "description": "(§1) Specifically, the c-kit D816V mutant Ba/F3 cell line was adjusted to a concentration of 1×10^6 cells/ml and treated with each of PHI-101 at concentrations of 0.1, 1 and 10 μM and the control compound sunitinib at concentrations of 1 and 10 μM for 24 hours. Thereafter, the medium was removed and the cells were washed once with 1 ml PBS. The PBS was removed by centrifugation at 1,000 rpm for 5 minutes. The cells were dissolved in 100 μl of PBS containing Ca^2+ and Mg^2+ and allowed to react with 5 μl of Annexin V for 20 minutes. After completion of the reaction, 400 μl of PBS containing Ca^2+ and Mg^2+ was added, and 5 μl of propidium iodide (PI) was added, and then the degree of apoptotic cell death was analyzed by FACS (fluorescence activated cell sorter) assay using a flow cytometer (FACS-C6, BD)."}, "[3]": {"tested_on": "HMC-1.2 cell line (imatinib-resistant cell line, having c-kit G560V/D816V mutation)", "test": "Growth inhibition of mastocytosis cell line HMC-1.2", "type": "cell-based", "conditions": "HMC-1.2, 72 hours", "description": "[Worded in the source for another cell line; this cell line is reported under the same test.] Specifically, 100 μl of a Ba/F3 cell line with a c-kit D816V mutation (FIG. 1) was added to each well of a 96-well plate at a concentration of 10,000 cells/100 μl. […] As the control compounds, imatinib and sunitinib which are c-kit inhibitors were used."}, "[4]": {"tested_on": "HMC-1.2 cell line", "test": "Annexin V-PI FACS apoptosis analysis, HMC-1.2", "type": "cell-based", "conditions": "HMC-1.2, 0.1 and 1 μM, FIG. 7", "description": "as §1\nSpecifically, the apoptotic effect of PHI-101 against the HMC-1.2 cell line was analyzed in the same manner as in Example 1-3, except that the HMC-1.2 cell line was treated with each of the control compounds at a concentration of 1 μM and PHI-101 at concentrations of 0.1 and 1 μM."}, "[5]": {"tested_on": "HMC-1.2 cells subcutaneous tumor", "test": "Tumor growth inhibition in mastocytosis mouse model with HMC-1.2 cell line", "type": "in vivo, NOD SCID female mice", "description": "(§2) As mice, 6-8-week-old NOD SCID female mice (18 to 22 g) (GemPharmatech Co., Ltd.) were prepared. Mice were acclimatized for 7 days before use in the experiment, and mice with abnormal health were excluded from the experiment. Mice were bred in a cage (300×180×150 mm) at a 22±3° C. and a relative humidity of 40% to 70% with a 12-hr light/12-hr dark cycle. Mice were allowed access to sterilized dry granular food (Beijing Keaoxieli Feed Co., Ltd., Beijing, China) and water ad libitum for the entire experimental period except for the period specified in the protocol.\n50 ml of HMC-1.2 cells suspension-cultured in a 75T flask were placed in a conical tube and centrifuged at 1,200 rpm for 2 minutes, centrifuged with DPBS (Dulbecco's Phosphate-Buffered Saline, Welgene) at 1,200 rpm for 2 minutes, washed, and then suspended in RPMI1640 (Welgene) without antibiotics and fetal bovine serum (FBS).\nThereafter, when the average tumor volume reached 150 to 200 mm^3, 4 mice were assigned to each group so that the average tumor volume at each group and treatment time was the same between the groups.\nIn addition, the width and length of the tumor were measured using a caliper at 3-day intervals, and the tumor volume was calculated using the following equation.\n(V: tumor volume, W: tumor width, and L: tumor length)\nIn addition, the mice were sacrificed 3 weeks after the start of oral administration of each drug and the tumor weight was measured using a digital scale. For each data, one-way ANOVA was used to test the significance of each group."}, "[6]": {"tested_on": "inflammatory response caused by mastocytosis (HMC-1.2 mouse model)", "test": "Spleen/body weight ratio in mastocytosis mouse model (inflammatory response)", "type": "in vivo, NOD SCID female mice", "description": "as §2\n50 ml of HMC-1.2 cells suspension-cultured in a 75T flask were placed in a conical tube and centrifuged at 1,200 rpm for 2 minutes, centrifuged with DPBS (Dulbecco's Phosphate-Buffered Saline, Welgene) at 1,200 rpm for 2 minutes, washed, and then suspended in RPMI1640 (Welgene) without antibiotics and fetal bovine serum (FBS). Then, the cells were stained with trypan blue, counted with a hemocytometer, and then HMC-1.2 cells (1×10^6) in a mixture of 0.1 ml L-15 and Matrigel (BD, cat. No. 356234) (1:1) were subcutaneously injected into the right flanks of mice anesthetized by intraperitoneal administration of Avertin (250 mg/kg), thus inducing tumors.\n(§3) Thereafter, when the average tumor volume reached 150 to 200 mm^3, 4 mice were assigned to each group so that the average tumor volume at each group and treatment time was the same between the groups. Then, each of imatinib at a dose of 90 mg/kg, sunitinib at doses of 20 and 40 mg/kg, and PHI-101 at doses of 7, 20, 40 and 80 mg/kg was administered orally to the mice once daily for 3 weeks. For oral administration, each compound was dissolved in 5% 1-methyl-2-pyrrolidone and then completely mixed in 15% Kolliphor, 30% PEG E400 HS15 and 50% 0.05M citric acid.\nSpecifically, 3 weeks after administering each drug to the mastocytosis mouse model of Example 3-1, the mice were sacrificed, the body weight and spleen weight were measured using a digital scale, and then the spleen/body weight ratio was calculated."}, "[7]": {"test": "Body weight monitoring in mastocytosis mouse model", "type": "in vivo, NOD SCID female mice", "conditions": "80 mg/kg oral once daily for 3 weeks", "description": "as §3\nSpecifically, while the presence or absence of abnormalities in the mastocytosis mouse model of Example 3-1 was monitored daily by checking the skin condition, bleeding and stool status, whether the body weight changed was checked by measuring the mouse body weight at intervals of 3 days after the start of oral administration of each drug. In addition, the width and length of the tumor were measured using a caliper at 3-day intervals, and the tumor volume was calculated using the following equation."}, "[8]": {"conditions": "7 mg/kg oral once daily for 3 weeks"}, "[9]": {"conditions": "20 mg/kg oral once daily for 3 weeks"}, "[10]": {"conditions": "40 mg/kg oral once daily for 3 weeks"}, "[11]": {"conditions": "80 mg/kg oral once daily for 3 weeks"}}, "data": [{"smiles": "NC(=O)Nc1cc(C#Cc2cccc(F)c2)sc1C(=O)N[C@H]1CCCNC1", "note": "[PHI-101]", "values": [{"measurement": "selectivity for c-kit D816V Ba/F3 over parental Ba/F3", "setting": "[1]", "result": "higher selectivity for the c-kit D816V Ba/F3 mutant cell line than for the parental Ba/F3 cell line"}, {"measurement": "apoptosis induction (Annexin V-PI FACS)", "setting": "[2]", "result": "strongly induced apoptosis even at a concentration of 0.1 μM"}, {"measurement": "GI50", "setting": "[3]", "result": 33, "unit": "nM"}, {"measurement": "apoptosis induction (Annexin V-PI FACS)", "setting": "[4]", "result": "strongly induced apoptosis even at a concentration of 1 μM"}, {"measurement": "Tumor growth inhibition (TGI) (%) Timor volume", "setting": "[5]; [8]", "result": 30.2, "unit": "%"}, {"measurement": "Tumor growth inhibition (TGI) (%) Tumor weight", "setting": "[5]; [8]", "result": 32.7, "unit": "%"}, {"measurement": "Tumor growth inhibition (TGI) (%) Timor volume", "setting": "[5]; [9]", "result": 43.6, "unit": "%"}, {"measurement": "Tumor growth inhibition (TGI) (%) Tumor weight", "setting": "[5]; [9]", "result": 51.6, "unit": "%"}, {"measurement": "growth of mastocytosis cells in mouse model", "setting": "[5]; 40 mg/kg or more, versus control compounds, FIGS. 9 to 12", "result": "significantly inhibited compared to that in the group treated with each control compound"}, {"measurement": "Tumor growth inhibition (TGI) (%) Timor volume", "setting": "[5]; [10]", "result": 68.4, "unit": "%"}, {"measurement": "Tumor growth inhibition (TGI) (%) Tumor weight", "setting": "[5]; [10]", "result": 68.3, "unit": "%"}, {"measurement": "Tumor growth inhibition (TGI) (%) Timor volume", "setting": "[5]; [11]", "result": 78.5, "unit": "%"}, {"measurement": "Tumor growth inhibition (TGI) (%) Tumor weight", "setting": "[5]; [11]", "result": 82.7, "unit": "%"}, {"measurement": "Spleen/body weight ratio % of control", "setting": "[6]; [8]", "result": 105.0, "unit": "%"}, {"measurement": "Spleen/body weight ratio Inhibition (%)", "setting": "[6]; [8]", "result": "−5", "unit": "%"}, {"measurement": "Spleen/body weight ratio % of control", "setting": "[6]; [9]", "result": 95.0, "unit": "%"}, {"measurement": "Spleen/body weight ratio Inhibition (%)", "setting": "[6]; [9]", "result": 5, "unit": "%"}, {"measurement": "Spleen/body weight ratio % of control", "setting": "[6]; [10]", "result": 55.7, "unit": "%"}, {"measurement": "Spleen/body weight ratio Inhibition (%)", "setting": "[6]; [10]", "result": 44.3, "unit": "%"}, {"measurement": "Spleen/body weight ratio % of control", "setting": "[6]; [11]", "result": 46.3, "unit": "%"}, {"measurement": "Spleen/body weight ratio Inhibition (%)", "setting": "[6]; [11]", "result": 53.7, "unit": "%"}, {"measurement": "spleen/body weight ratio compared to control group", "setting": "[6]; 7, 20, 40 and 80 mg/kg, FIGS. 13 and 14", "result": "decreased the spleen/body weight ratio in a concentration-dependent manner"}, {"measurement": "weight loss", "setting": "[7]", "result": "no weight loss"}]}]}
